These molecules were tested against T1, human MGL from HeLa cells (Homo sapiens, UniProt Q99685) (assay: In vitro MGL activity assay: [glycerol-1,3-3H]-oleyl glycerol cleavage by MGL from HeLa cells). Settings: 300 nM [Glycerol-1,3-3H]-oleyl glycerol, one hour incubation.
T1 construct: combining endogenously expressed MGL from HeLa cells with test compounds; endogenous in cells; host or cells: HeLa cells / cell homogenates
T1 sequence (Q99685 1-303): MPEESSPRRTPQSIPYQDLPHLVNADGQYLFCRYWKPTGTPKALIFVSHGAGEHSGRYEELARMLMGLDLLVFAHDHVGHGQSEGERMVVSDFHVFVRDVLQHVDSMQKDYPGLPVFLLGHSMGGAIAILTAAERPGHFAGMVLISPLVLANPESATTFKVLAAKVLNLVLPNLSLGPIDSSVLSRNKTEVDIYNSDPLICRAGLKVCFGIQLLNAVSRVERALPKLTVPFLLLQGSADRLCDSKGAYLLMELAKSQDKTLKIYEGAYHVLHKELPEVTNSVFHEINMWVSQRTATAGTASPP
Format: biochemical
Description: MGL is the predominant hydrolase in HeLa cells/cell homogenates.

| Structure (SMILES) | IC50 [nM] |
| --- | --- |
| C[C@H]1c2nn(C)c(-c3cc(F)c(F)c(F)c3)c2CCN1C(=O)c1cn(C)c2ncccc12 [Example 223, (S)-(2,7-Dimethyl-3-(3,4,5-trifluorophenyl)-2,4,5,7-tetrahydro-6H-pyrazolo[3,4-c]pyridin-6-yl)(1-methyl-1H-pyrrolo[2,3-b]pyridin-3-yl)methanone] | 87.6 |
| C[C@H]1c2nn(C)c(-c3cc(F)c(F)c(F)c3)c2CCN1C(=O)c1cncc2c1ccn2C [Example 224, (S)-(2,7-Dimethyl-3-(3,4,5-trifluorophenyl)-2,4,5,7-tetrahydro-6H-pyrazolo[3,4-c]pyridin-6-yl)(1-methyl-1H-pyrrolo[2,3-c]pyridin-4-yl)methanone] | 2.55 |
| C[C@H]1c2nn(C)c(-c3cc(F)c(F)c(F)c3)c2CCN1C(=O)c1ccnc2c1ccn2C [Example 225, (S)-(2,7-Dimethyl-3-(3,4,5-trifluorophenyl)-2,4,5,7-tetrahydro-6H-pyrazolo[3,4-c]pyridin-6-yl)(1-methyl-1H-pyrrolo[2,3-b]pyridin-4-yl)methanone] | 0.64 |
| C[C@H]1c2nn(C)c(-c3cc(F)c(F)c(F)c3)c2CCN1C(=O)c1cnc2c(ccn2C)c1 [Example 226, (S)-(2,7-Dimethyl-3-(3,4,5-trifluorophenyl)-2,4,5,7-tetrahydro-6H-pyrazolo[3,4-c]pyridin-6-yl)(1-methyl-1H-pyrrolo[2,3-b]pyridin-5-yl)methanone] | 16.2 |
| C[C@H]1c2nn(C)c(-c3cc(F)c(F)c(F)c3)c2CCN1C(=O)c1cccn2nccc12 [Example 227, (S)-(2,7-Dimethyl-3-(3,4,5-trifluorophenyl)-2,4,5,7-tetrahydro-6H-pyrazolo[3,4-c]pyridin-6-yl)(pyrazolo[1,5-a]pyridin-4-yl)methanone] | 9.51 |
| C[C@H]1c2nn(C)c(-c3cc(F)c(F)c(F)c3)c2CCN1C(=O)c1ccn2nccc2c1 [Example 228, (S)-(2,7-Dimethyl-3-(3,4,5-trifluorophenyl)-2,4,5,7-tetrahydro-6H-pyrazolo[3,4-c]pyridin-6-yl)(pyrazolo[1,5-a]pyridin-5-yl)methanone] | 48.1 |
| C[C@H]1c2nn(C)c(-c3cc(F)c(F)c(F)c3)c2CCN1C(=O)c1cnn2ccncc12 [Example 229, (S)-(2,7-Dimethyl-3-(3,4,5-trifluorophenyl)-2,4,5,7-tetrahydro-6H-pyrazolo[3,4-c]pyridin-6-yl)(pyrazolo[1,5-a]pyrazin-3-yl)methanone] | 40.7 |
| C[C@H]1c2nn(C)c(-c3cc(F)c(F)c(F)c3)c2CCN1C(=O)c1nn(C)c2ncccc12 [Example 230, (S)-(2,7-Dimethyl-3-(3,4,5-trifluorophenyl)-2,4,5,7-tetrahydro-6H-pyrazolo[3,4-c]pyridin-6-yl)(1-methyl-1H-pyrazolo[3,4-b]pyridin-3-yl)methanone] | 23 |
| C[C@H]1c2nn(C)c(-c3cc(F)c(F)c(F)c3)c2CCN1C(=O)c1cnc2c(cnn2C)c1 [Example 231, (S)-(2,7-Dimethyl-3-(3,4,5-trifluorophenyl)-2,4,5,7-tetrahydro-6H-pyrazolo[3,4-c]pyridin-6-yl)(1-methyl-1H-pyrazolo[3,4-b]pyridin-5-yl)methanone] | 124 |
| C[C@H]1c2nn(C(F)F)c(-c3cc(F)c(F)c(F)c3)c2CCN1C(=O)c1ccc2ncccc2c1 [Example 232, (S)-(2-(Difluoromethyl)-7-methyl-3-(3,4,5-trifluorophenyl)-2,4,5,7-tetrahydro-6H-pyrazolo[3,4-c]pyridin-6-yl)(quinolin-6-yl)methanone] | 5.57 |
| C[C@@H]1c2nn(C(F)F)c(-c3cc(F)c(F)c(F)c3)c2CCN1C(=O)c1ccc2ncccc2c1 [Example 233, (R)-(2-(Difluoromethyl)-7-methyl-3-(3,4,5-trifluorophenyl)-2,4,5,7-tetrahydro-6H-pyrazolo[3,4-c]pyridin-6-yl)(quinolin-6-yl)methanone] | 550 |
| C[C@H]1c2nn(C)c(-c3cc(F)c(F)c(F)c3)c2CCN1C(=O)c1ccc2ncccc2c1 [Example 234, (S)-(2,7-Dimethyl-3-(3,4,5-trifluorophenyl)-2,4,5,7-tetrahydro-6H-pyrazolo[3,4-c]pyridin-6-yl)(quinolin-6-yl)methanone] | 4.71 |
| C[C@@H]1c2nn(C)c(-c3cc(F)c(F)c(F)c3)c2CCN1C(=O)c1ccc2ncccc2c1 [Example 235, (R)-(2,7-Dimethyl-3-(3,4,5-trifluorophenyl)-2,4,5,7-tetrahydro-6H-pyrazolo[3,4-c]pyridin-6-yl)(quinolin-6-yl)methanone] | 3660 |
| C[C@H]1c2nn(C)c(-c3cc(F)c(F)c(F)c3)c2CCN1C(=O)c1cccc2cccnc12 [Example 236, (S)-(2,7-Dimethyl-3-(3,4,5-trifluorophenyl)-2,4,5,7-tetrahydro-6H-pyrazolo[3,4-c]pyridin-6-yl)(quinolin-8-yl)methanone] | 5.79 |
| C[C@H]1c2nn(C)c(-c3cc(F)c(F)c(F)c3)c2CCN1C(=O)c1nccc2ccccc12 [Example 237, (S)-(2,7-Dimethyl-3-(3,4,5-trifluorophenyl)-2,4,5,7-tetrahydro-6H-pyrazolo[3,4-c]pyridin-6-yl)(isoquinolin-1-yl)methanone] | 1.89 |
| C[C@H]1c2nn(C)c(-c3cc(F)c(F)c(F)c3)c2CCN1C(=O)c1ccnc2c(F)cccc12 [Example 238, (S)-(2,7-Dimethyl-3-(3,4,5-trifluorophenyl)-2,4,5,7-tetrahydro-6H-pyrazolo[3,4-c]pyridin-6-yl)(8-fluoroquinolin-4-yl)methanone] | 2.69 |
| Cc1cc(C(=O)N2CCc3c(nn(C)c3-c3cc(F)c(F)c(F)c3)[C@@H]2C)c2ccccc2n1 [Example 239, (S)-(2,7-Dimethyl-3-(3,4,5-trifluorophenyl)-2,4,5,7-tetrahydro-6H-pyrazolo[3,4-c]pyridin-6-yl)(2-methylquinolin-4-yl)methanone] | 3.74 |
| COc1cc(C(=O)N2CCc3c(nn(C)c3-c3cc(F)c(F)c(F)c3)[C@@H]2C)c2ccccc2n1 [Example 240, (S)-(2,7-Dimethyl-3-(3,4,5-trifluorophenyl)-2,4,5,7-tetrahydro-6H-pyrazolo[3,4-c]pyridin-6-yl)(2-methoxyquinolin-4-yl)methanone] | 0.69 |
| Cc1cc(C(=O)N2CCc3c(nn(C)c3-c3cc(F)c(F)c(F)c3)[C@@H]2C)c2cccc(F)c2n1 [Example 241, (S)-(2,7-Dimethyl-3-(3,4,5-trifluorophenyl)-2,4,5,7-tetrahydro-6H-pyrazolo[3,4-c]pyridin-6-yl)(8-fluoro-2-methylquinolin-4-yl)methanone] | 6.56 |
| C[C@H]1c2nn(C)c(-c3cc(F)c(F)c(F)c3)c2CCN1C(=O)c1ccc2nccnc2c1 [Example 242, (S)-(2,7-Dimethyl-3-(3,4,5-trifluorophenyl)-2,4,5,7-tetrahydro-6H-pyrazolo[3,4-c]pyridin-6-yl)(quinoxalin-6-yl)methanone] | 22.3 |
| Cc1cnc2cc(C(=O)N3CCc4c(nn(C)c4-c4cc(F)c(F)c(F)c4)[C@@H]3C)ccc2n1 [Example 243, (S)-(2,7-Dimethyl-3-(3,4,5-trifluorophenyl)-2,4,5,7-tetrahydro-6H-pyrazolo[3,4-c]pyridin-6-yl)(2-methylquinoxalin-6-yl)methanone] | 25 |
| C[C@H]1c2nn(C)c(-c3cc(F)c(F)c(F)c3)c2CCN1C(=O)c1ccc2ncccc2n1 [Example 244, (S)-(2,7-Dimethyl-3-(3,4,5-trifluorophenyl)-2,4,5,7-tetrahydro-6H-pyrazolo[3,4-c]pyridin-6-yl)(1,5-naphthyridin-2-yl)methanone] | 14.1 |
| C[C@H]1c2nn(C)c(-c3cc(F)c(F)c(F)c3)c2CCN1C(=O)c1cnc2cccnc2c1 [Example 245, (S)-(2,7-Dimethyl-3-(3,4,5-trifluorophenyl)-2,4,5,7-tetrahydro-6H-pyrazolo[3,4-c]pyridin-6-yl)(1,5-naphthyridin-3-yl)methanone] | 122 |
| C[C@H]1c2nn(C)c(-c3cc(F)c(F)c(F)c3)c2CCN1C(=O)c1cncc2cccnc12 [Example 246, (S)-(2,7-Dimethyl-3-(3,4,5-trifluorophenyl)-2,4,5,7-tetrahydro-6H-pyrazolo[3,4-c]pyridin-6-yl)(1,6-naphthyridin-8-yl)methanone] | 20 |
| C[C@H]1c2nn(C)c(-c3ccc(C(F)(F)F)o3)c2CCN1C(=O)c1ccc2nccnc2c1 [Example 247, (S)-(2,7-Dimethyl-3-(5-(trifluoromethyl)furan-2-yl)-2,4,5,7-tetrahydro-6H-pyrazolo[3,4-c]pyridin-6-yl)(quinoxalin-6-yl)methanone] | 186 |
| C[C@H]1c2nn(C)c(-c3cncc(C(F)(F)F)c3)c2CCN1C(=O)c1ccc2nccnc2c1 [Example 248, (S)-(2,7-Dimethyl-3-(5-(trifluoromethyl)pyridin-3-yl)-2,4,5,7-tetrahydro-6H-pyrazolo[3,4-c]pyridin-6-yl)(quinoxalin-6-yl)methanone] | 2230 |
| CC1c2nn(C)c(-c3cccc4c3ccn4C)c2CCN1C(=O)c1ccc2ncccc2c1 (centres unmarked) [Example 249, (2,7-Dimethyl-3-(1-methyl-1H-indol-4-yl)-2,4,5,7-tetrahydro-6H-pyrazolo[3,4-c]pyridin-6-yl)(quinolin-6-yl)methanone] | 1530 |
| CC1c2nn(C)c(-c3cc4ccccc4n3C)c2CCN1C(=O)c1ccc2ncccc2c1 (centres unmarked) [Example 250, (2,7-Dimethyl-3-(1-methyl-1H-indol-2-yl)-2,4,5,7-tetrahydro-6H-pyrazolo[3,4-c]pyridin-6-yl)(quinolin-6-yl)methanone] | 206 |
| CC1c2nn(C)c(-c3cn(C)c4ccccc34)c2CCN1C(=O)c1ccc2ncccc2c1 (centres unmarked) [Example 251, (2,7-Dimethyl-3-(1-methyl-1H-indol-3-yl)-2,4,5,7-tetrahydro-6H-pyrazolo[3,4-c]pyridin-6-yl)(quinolin-6-yl)methanone] | 1890 |
